The structures appear in SMILES notation.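 Values below derive from 48-hour exposures of cells grown in 96-well plates, with endpoints linearly interpolated between the two concentrations bracketing the appropriate inhibition level. At the GI50, growth is halved. TGI denotes the concentration required for complete inhibition of growth.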 Some results are limits rather than exact numbers.

The values below come from PubChem BioAssay (NCI).

Common to all, as to test: NCI tumour cell line growth inhibition, 48 h
Test [1] has as its system NCI/ADR-RES ovarian.
The subject of test [2] is EKVX NSCLC.
Test [3] deals with SF-268 CNS.
In test [4] the test system is OVCAR-4 ovarian.
For test [5], the system named is MDA-MB-435.
The test system of test [6] is DU-145 prostate.
Test [7] concerns SK-MEL-5 melanoma.
The test system of test [8] is SNB-19 CNS.
Test [9] concerns MOLT-4 leukemia.
In test [10] the test system is LOX IMVI melanoma.

Turning to `COc1cccc(CCNC(=O)CC(c2ccccc2)(c2ccccc2)c2ccccc2)c1`, the GI50 was 5.26 µM in test [1]; 22.7 µM in [2]; 15 µM in test [3]; > 100 µM in [4]; 6.5 µM in test [5]; 26.8 µM in test [6]. The GI50 in [7] was 4.84 µM; in test [8], 90.1 µM; in test [9], 6.01 µM. Further, the TGI in test [1], in [2], in [3], in test [4], in test [5] and in test [6] was > 100 µM each time. Besides, the TGI in [7], in [8] and in [9] was > 100 µM throughout.
For the molecule `Nc1c(C(=O)c2ccc(C#CCN3CCOCC3)cc2)cnn1-c1ccc(F)cc1`, the GI50 in test [1], in test [3], in test [4], in test [5], in test [10] and in test [6] was > 25 µM in each case. Also, the GI50 in test [7], in test [8] and in test [9] was > 25 µM throughout. The TGI in test [1], in test [3], in test [4], in test [5], in test [10] and in [6] was > 25 µM in each case. Besides, the TGI in [7], in test [8] and in [9] was > 25 µM throughout.
With `CS(=O)(=O)O[C@H]1C(=O)N(c2cc3c4ccccc4ccc3c3ccccc23)[C@@H]1c1ccccn1`, the GI50 in test [1] was 0.523 µM; in test [3], 0.707 µM; in test [4], 1.62 µM; in test [5], 0.217 µM; in [10], 0.588 µM; in [6], 0.416 µM. For the same molecule, the values for the GI50 in [7], in test [8] and in test [9] were 0.3 µM, 0.749 µM and 2.22 µM, respectively. Also, the TGI in test [1] is > 100 µM; in [3], > 100 µM; in [4], > 100 µM; in test [5], 0.597 µM; in test [10], > 100 µM; in [6] it was > 100 µM. Also, the TGI in test [7] is 3.35 µM; in [8], > 100 µM; in test [9], > 100 µM.
For `Cc1cncc(-c2nc(NCCc3c[nH]c4ccccc34)c3ncn(C(C)C)c3n2)c1`, the GI50 in test [1] was 3.69 µM; in test [2], 6.77 µM; in test [3], 5.93 µM; in [4] it was 3.93 µM; in [5], 4.6 µM; in test [10], 4.61 µM. For the same molecule, the values for the GI50 in [6], in test [7] and in test [8] were 4.41 µM, 4.23 µM and 11.5 µM, respectively. For the same molecule, the TGI in [1] came to 24 µM; in test [2], 35.5 µM; in test [3] it was 38.6 µM; in test [4] it was 39.6 µM; in test [5] it was 17 µM; in [10] it was 15.5 µM. Moreover, the TGI came to 22.1 µM in [6], 15.5 µM in test [7] and 46.6 µM in test [8].
`CCC(C)C(=O)O[C@H]1C(=O)O[C@@H]2C[C@H]3C(C)=CC(=O)[C@@H](O)[C@]3(C)[C@H]3[C@@H](O)[C@H](O)[C@@]4(C)OC[C@]32[C@@H]14` (some centres not stated): the TGI in [3] is 0.454 µM; in test [4], < 0.01 µM; in test [5], < 0.01 µM; in test [10], < 0.0246 µM; in test [6], < 0.0164 µM; in test [7] it was < 0.0338 µM. For the same molecule, the TGI in test [8] is < 0.0291 µM; in [9] it was 0.267 µM.
Turning to `C[C@@H]1CC[C@H]2[C@@H](C)C(OC/C=C/COC3O[C@@H]4O[C@@]5(C)CC[C@H]6[C@H](C)CC[C@@H]([C@H]3C)[C@@]46OO5)O[C@@H]3O[C@@]4(C)CC[C@@H]1[C@]32OO4` (some centres not stated), the GI50 in [1] was 0.0887 µM; in [2], 16 µM; in test [3], 0.045 µM; in [5], 0.0161 µM; in test [10], < 0.01 µM; in test [6], 30.5 µM. Besides, the figures for the GI50 in test [7], in test [8] and in [9] were 0.0491 µM, 5.19 µM and < 0.01 µM, respectively. Besides, the TGI in test [1] was 14.8 µM; in [2] it was > 100 µM; in test [3], > 47.1 µM; in [5], 25.1 µM; in test [10] it was 11.4 µM; in [6] it was > 100 µM. In addition, the TGI in test [7] is 18.6 µM; in test [8] it was > 100 µM; in test [9], > 47.2 µM.
Take `COc1ccc(NC(=S)C#N)cc1`: the TGI in test [1], in test [3], in test [5], in [10], in [6] and in [7] was > 100 µM each time. Moreover, in test [8], the TGI was > 100 µM.
In the case of `CCSc1nc(NC(C)c2ccccc2)c2cnn(CO)c2n1` (configuration not stated), the GI50 was 80.8 µM in test [1]; > 100 µM in [3]; 86.4 µM in test [4]; 21.1 µM in test [5]; 37 µM in test [10]; > 100 µM in [6]. Further, the values for the GI50 in test [7], in [8] and in [9] were 3.18 µM, > 100 µM and > 100 µM, respectively. Moreover, the TGI in test [1], in test [3], in test [4], in test [5], in test [10] and in test [6] was > 100 µM each time. The TGI in [7] is 25.9 µM; in [8], > 100 µM; in test [9], > 100 µM.
As for `COc1ccc(C2=NN(C=O)C(c3ccc(OS(=O)(=O)c4ccc(C)cc4)c(OC)c3)C2)cc1` (configuration not stated), the GI50 was 4.5 µM in [1]; 17.2 µM in [3]; 2.4 µM in test [5]; 9.41 µM in [10]; 74.9 µM in test [6]; 11.7 µM in [8]. The GI50 in test [9] is 5.23 µM. Further, the TGI was > 100 µM in test [1]; > 100 µM in test [3]; 9.97 µM in [5]; > 100 µM in test [10]; > 100 µM in [6]; > 100 µM in test [8]. In addition, the TGI in [9] is > 100 µM.
